In patent publication US20240116985A1, “STAPLED PEPTIDES AND METHODS THEREOF” (priority 2020, published 2024):
≈ marks a conversion by molar mass, not a printed value. Where two headings read alike, the source gives them in different places.

Assays:
[1] = target: T1, full-length beta-Catenin (Uniprot ID P35222) (Homo sapiens, UniProt P35222); assay: Fluorescence polarization IC50 (beta-catenin / 5FAM-TCF4 10-53 competition); format: binding
T1 construct: 10 nM full-length beta-Catenin (Uniprot ID P35222)
T1 sequence (P35222 1-781): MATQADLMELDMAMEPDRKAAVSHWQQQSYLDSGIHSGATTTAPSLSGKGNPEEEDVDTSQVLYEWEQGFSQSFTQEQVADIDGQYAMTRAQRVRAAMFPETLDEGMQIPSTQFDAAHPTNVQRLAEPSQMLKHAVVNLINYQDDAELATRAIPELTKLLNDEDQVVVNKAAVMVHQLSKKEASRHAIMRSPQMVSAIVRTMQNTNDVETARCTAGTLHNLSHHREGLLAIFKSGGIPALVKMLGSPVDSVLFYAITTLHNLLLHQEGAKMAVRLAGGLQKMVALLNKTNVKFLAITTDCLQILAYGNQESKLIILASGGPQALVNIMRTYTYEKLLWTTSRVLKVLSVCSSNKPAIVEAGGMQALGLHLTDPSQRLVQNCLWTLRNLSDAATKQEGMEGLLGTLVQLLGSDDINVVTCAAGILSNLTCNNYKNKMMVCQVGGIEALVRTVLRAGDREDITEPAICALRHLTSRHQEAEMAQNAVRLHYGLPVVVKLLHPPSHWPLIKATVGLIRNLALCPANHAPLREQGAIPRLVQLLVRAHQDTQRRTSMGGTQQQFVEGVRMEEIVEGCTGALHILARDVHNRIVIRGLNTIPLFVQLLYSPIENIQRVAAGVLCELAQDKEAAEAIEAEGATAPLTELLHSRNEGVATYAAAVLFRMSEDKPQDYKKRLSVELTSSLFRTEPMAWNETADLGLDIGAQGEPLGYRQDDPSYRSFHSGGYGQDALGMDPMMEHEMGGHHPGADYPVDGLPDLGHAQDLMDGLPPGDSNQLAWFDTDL

CHI Log D procedure = format: physicochemical; details: for CHI Log D: pH 7.4; for chromatographic logD: pH 7.4, CHI Log D
Solubility in PBS = format: physicochemical
How it was run: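 Read-out is the HPLC peak area of the supernatant from ultracentrifuged PBS solution, scaled against a 50 μM peptide DMSO injection; value reported as [(PBS area)/(DMSO area)]*50 uM.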

[2] = fluorescence polarization, beta-catenin, read-out: FP EC50
[3] = fluorescence polarization, read-out: beta-Catenin FP IC50

SMILES	IC50 [1, 2]	IC50 ([1]; read-out: beta-Catenin FP IC50)	CHI Log D (CHI Log D procedure)	Solubility (Solubility in PBS)	IC50 [1, 3]	IC50 ([1]; read-out: FP EC50)	chromatographic logD (CHI Log D procedure)	Solubility (Solubility in PBS; Solubility (uM))
CC(=O)N1CCC[C@]12CC=CCCCC1(CCCC=CCCCOC(=O)N3CC[C@@](C(=O)N[C@@H](Cc4ccsc4)C(=O)N[C@@H](Cc4csc5ccccc45)C(=O)N[C@@H](CO)C(N)=O)(C3)NC(=O)[C@H]([C@@H](C)O)NC(=O)[C@H](Cc3ccccc3)NC(=O)[C@H](C)NC(=O)[C@H](C)NC(=O)[C@H](CN(CC(=O)O)CC(F)(F)F)NC(=O)[C@H](CC(=O)O)NC1=O)NC(=O)[C@H](CC(C)(C)C)NC(=O)[C@H](CC(=O)O)NC2=O (stereo partly drawn) [I-957, Ac-PL3-Asp-Npg-B5-Asp-TfeGA-Ala-Ala-Phe-Thr-PyrS2-3Thi-BztA-Ser-NH2]	1430 nM	1430 nM	−0.043	46 µM (≈ 90.9 µg/mL)				
CC[C@H](C)[C@@H]1NC(=O)[C@H](CC(=O)O)NC(=O)[C@]2(CC=CCCCC3(CCCC=CCCCCCC[C@@](C)(C(=O)N[C@@H](Cc4ccccc4)C(=O)N[C@@H](Cc4csc5ccccc45)C(=O)N[C@@H](CCC(N)=O)C(N)=O)NC(=O)[C@H](CCC(N)=O)NC(=O)[C@H](Cc4ccccc4)NC(=O)[C@H](C)NC(=O)[C@H](CC(C)C)NC(=O)[C@H](CCC(=O)O)NC(=O)[C@H](CC(=O)O)NC3=O)NC1=O)CCCN2C(C)=O (stereo partly drawn) [I-648, Ac-PL3-Asp-Ile-B5-Asp-Glu-Leu-Ala-Phe-Gln-S8-Phe-BztA-Gln-NH2]			2.721	46 µM (≈ 88.6 µg/mL)	233 nM	233 nM		
CC[C@H](C)[C@@H]1NC(=O)[C@H](CC(=O)O)NC(=O)[C@]2(CC=CCCCC3(CCCC=CCCCCCC[C@@](C)(C(=O)N[C@@H](Cc4ccccc4)C(=O)N[C@@H](Cc4csc5ccccc45)C(=O)N[C@@H](CCC(N)=O)C(N)=O)NC(=O)[C@H](CCC(N)=O)NC(=O)[C@H](CC4CCCCC4)NC(=O)[C@H](C)NC(=O)[C@H](C)NC(=O)[C@H](CCC(=O)O)NC(=O)[C@H](CC(=O)O)NC3=O)NC1=O)CCCN2C(C)=O (stereo partly drawn) [I-722, Ac-PL3-Asp-Ile-B5-Asp-Glu-Ala-Ala-Cha-Gln-S8-Phe-BztA-Gln-NH2]					1130 nM		2.52	27 µM (≈ 51 µg/mL)
CC[C@H](C)[C@@H]1NC(=O)[C@H](CC(=O)O)NC(=O)[C@]2(CC=CCCCC3(CCCC=CCCCCCC[C@@](C)(C(=O)N[C@@H](Cc4ccccc4)C(=O)N[C@@H](Cc4csc5ccccc45)C(=O)N[C@@H](CCC(N)=O)C(N)=O)NC(=O)[C@H](CCC(N)=O)NC(=O)[C@H](Cc4ccccc4)NC(=O)[C@H](C)NC(=O)[C@H](Cc4c[nH]c5ccccc45)NC(=O)[C@H](CCC(=O)O)NC(=O)[C@H](CC(=O)O)NC3=O)NC1=O)CCCN2C(C)=O (stereo partly drawn) [I-655, Ac-PL3-Asp-Ile-B5-Asp-Glu-Trp-Ala-Phe-Gln-S8-Phe-BztA-Gln-NH2]					183 nM		2.69	46 µM (≈ 91.9 µg/mL)
CC(=O)N1CCC[C@]12CC=CCCCC1(CCCC=CCCCCCC[C@@](C)(C(=O)N[C@@H](Cc3ccsc3)C(=O)N[C@@H](Cc3csc4ccccc34)C(=O)N[C@@H](CCC(N)=O)C(N)=O)NC(=O)[C@H](CC(N)=O)NC(=O)[C@H](Cc3ccccc3)NC(=O)[C@H](C)NC(=O)[C@H](C)NC(=O)[C@H](CN(CC(=O)O)CC(F)(F)F)NC(=O)[C@H](CC(=O)O)NC1=O)NC(=O)[C@H](CC1CCCCC1)NC(=O)[C@H](CC(=O)O)NC2=O (stereo partly drawn) [I-707, Ac-PL3-Asp-Cha-B5-Asp-TfeGA-Ala-Ala-Phe-Asn-S8-3Thi-BztA-Gln-NH2]			2.963	48 µM (≈ 96.6 µg/mL)	46 nM	46 nM		
CC(=O)N1CCC[C@]12CC=CCCCC1(CCCC=CCCCOC(=O)N3CC[C@@](C(=O)N[C@@H](Cc4ccsc4)C(=O)N[C@@H](Cc4csc5ccccc45)C(=O)N[C@@H](CCC(N)=O)C(N)=O)(C3)NC(=O)[C@H](CC(N)=O)NC(=O)[C@H](Cc3ccccc3)NC(=O)[C@H](C)NC(=O)[C@H](C)NC(=O)[C@H](CC(=O)O)NC(=O)[C@H](CC(=O)O)NC1=O)NC(=O)[C@H](CCC(C)C)NC(=O)[C@H](CC(=O)O)NC2=O (stereo partly drawn) [I-787, Ac-PL3-Asp-hLeu-B5-Asp-Asp-Ala-Ala-Phe-Asn-PyrS2-3Thi-BztA-Gln-NH2]		5 nM		50 µM (≈ 95.9 µg/mL)			2.08	
CC(=O)N1CCC[C@]12CC=CCCCC1(CCCC=CCCCOC(=O)N3CC[C@@](C(=O)N[C@@H](Cc4ccsc4)C(=O)N[C@@H](Cc4csc5ccccc45)C(=O)N[C@@H](CO)C(N)=O)(C3)NC(=O)[C@H](CC(N)=O)NC(=O)[C@H](Cc3ccccc3)NC(=O)[C@H](C)NC(=O)[C@H](C)NC(=O)[C@H](CN(CC(=O)O)CC(F)(F)F)NC(=O)[C@H](CC(=O)O)NC1=O)NC(=O)[C@H](CC(C)(C)C)NC(=O)[C@H](CC(=O)O)NC2=O (stereo partly drawn) [I-941, Ac-PL3-Asp-Npg-B5-Asp-TfeGA-Ala-Ala-Phe-Asn-PyrS2-3Thi-BztA-Ser-NH2]	2110 nM	2110 nM	2.011	46 µM (≈ 91.5 µg/mL)				
CC(=O)N1CCC[C@]12CC=CCCCC1(CCCC=CCCCOC(=O)N3CC[C@@](C(=O)N[C@@H](Cc4ccsc4)C(=O)N[C@@H](Cc4csc5ccccc45)C(=O)N[C@@H](CO)C(N)=O)(C3)NC(=O)[C@H](CC(N)=O)NC(=O)[C@H](Cc3ccccc3)NC(=O)[C@H](C)NC(=O)[C@H](C)NC(=O)[C@H](CN(CC(=O)O)CC(F)(F)F)NC(=O)[C@H](CC(=O)O)NC1=O)NC(=O)[C@H](CC(C)(C)C)NC(=O)[C@H](CC(=O)O)NC2=O (stereo partly drawn) [I-940, Ac-PL3-Asp-Npg-B5-Asp-TfeGA-Ala-Ala-Phe-Asn-PyrS2-3Thi-BztA-Ser-NH2]	1740 nM	1740 nM	2.055	45 µM (≈ 89.5 µg/mL)				
CC(=O)N1CCC[C@]12CC=CCCCC1(CCCC=CCCCCCC[C@@](C)(C(=O)N[C@@H](Cc3ccccc3)C(=O)N[C@@H](Cc3csc4ccccc34)C(=O)N[C@@H](CCC(N)=O)C(N)=O)NC(=O)[C@H](CCC(N)=O)NC(=O)[C@H](Cc3ccccc3)NC(=O)[C@H](C)NC(=O)[C@H](C)NC(=O)[C@H](CCC(=O)O)NC(=O)[C@H](Cc3nn[nH]n3)NC1=O)NC(=O)[C@H](C)NC(=O)[C@H](CC(=O)O)NC2=O (stereo partly drawn) [I-414, Ac-PL3-Asp-Ala-B5-tetz-Glu-Ala-Ala-Phe-Gln-S8-Phe-BztA-Gln-NH2]			2.096	19 µM (≈ 35.4 µg/mL)	3420 nM	3420 nM		
CC(=O)N1CCC[C@]12CC=CCCCC1(CCCC=CCCCOC(=O)N3CC[C@@](C(=O)N[C@@H](Cc4ccsc4)C(=O)N[C@@H](Cc4csc5ccccc45)C(N)=O)(C3)NC(=O)[C@H](CC(N)=O)NC(=O)[C@H](Cc3ccccc3)NC(=O)[C@H](C)NC(=O)[C@H](C)NC(=O)[C@H](CC(C)C)NC(=O)[C@H](CC(=O)O)NC1=O)NC(=O)[C@H](CC(C)(C)C)NC(=O)[C@H](CC(=O)O)NC2=O (stereo partly drawn) [I-862, Ac-PL3-Asp-Npg-B5-Asp-Leu-Ala-Ala-Phe-Asn-PyrS2-3Thi-BztA-NH2]		123 nM		10 µM (≈ 17.9 µg/mL)			2.85	
CC(=O)N1CCC[C@]12CC=CCCCC1(CCCC=CCCCOC(=O)N3CC[C@@](C(=O)N[C@@H](Cc4ccsc4)C(=O)N[C@@H](Cc4csc5ccccc45)C(=O)N[C@@H](CCC(N)=O)C(N)=O)(C3)NC(=O)[C@H]([C@@H](C)O)NC(=O)[C@H](Cc3ccccc3)NC(=O)[C@H](C)NC(=O)[C@H](C)NC(=O)[C@H](Cc3cccc(C(=O)O)c3)NC(=O)[C@H](CC(=O)O)NC1=O)NC(=O)[C@H](CC(C)(C)C)NC(=O)[C@H](CC(=O)O)NC2=O (stereo partly drawn) [I-980, Ac-PL3-Asp-Npg-B5-Asp-3COOHF-Ala-Ala-Phe-Thr-PyrS2-3Thi-BztA-Gln-NH2]	221 nM	221 nM	1.695	19 µM (≈ 37.6 µg/mL)				
CC[C@H](C)[C@@H]1NC(=O)[C@H](CC(=O)O)NC(=O)[C@]2(CC=CCCCC3(CCCC=CCCCCCC[C@@](C)(C(=O)N[C@@H](Cc4ccccc4)C(=O)N[C@@H](Cc4csc5ccccc45)C(N)=O)NC(=O)[C@H](CCC(N)=O)NC(=O)[C@H](Cc4ccccc4)NC(=O)[C@H](C)NC(=O)[C@H](C)NC(=O)[C@H](CCC(=O)O)NC(=O)[C@H](CC(=O)O)NC3=O)NC1=O)CCCN2C(C)=O (stereo partly drawn) [I-409, Ac-PL3-Asp-Ile-B5-Asp-Glu-Ala-Ala-Phe-Gln-S8-Phe-BztA-NH2]			2.741	48 µM (≈ 84.2 µg/mL)	70 nM	70 nM		
CC[C@H](C)[C@@H]1NC(=O)[C@H](CC(=O)O)NC(=O)[C@]2(CC=CCCCC3(CCCC=CCCCCCC[C@@](C)(C(=O)N[C@@H](Cc4ccccc4)C(=O)N[C@@H](Cc4csc5ccccc45)C(=O)N[C@@H](CO)C(N)=O)NC(=O)[C@H](CCC(N)=O)NC(=O)[C@H](Cc4ccccc4)NC(=O)[C@H](C)NC(=O)[C@H](C)NC(=O)[C@H](CCC(=O)O)NC(=O)[C@H](CC(=O)O)NC3=O)NC1=O)CCCN2C(C)=O (stereo partly drawn) [I-640, Ac-PL3-Asp-Ile-B5-Asp-Glu-Ala-Ala-Phe-Gln-S8-Phe-BztA-Ser-NH2]			2.516	50 µM (≈ 92.1 µg/mL)	87 nM	87 nM		
